Test [1] has as its target Tyrosine-protein kinase ABL2 (Homo sapiens, UniProt P42684). The experiment in a line: Selectivity interaction (Ambit KINOMEscan and KiNATiv profiling in Jurkat cells) EUB0000090b ABL2. Particulars: at 1 µM. Type of test: cell-based.
Test [2] deals with T1, Serine/threonine-protein kinase TNNI3K (Homo sapiens) (UniProt Q59H18).
T1 sequence (whole entry): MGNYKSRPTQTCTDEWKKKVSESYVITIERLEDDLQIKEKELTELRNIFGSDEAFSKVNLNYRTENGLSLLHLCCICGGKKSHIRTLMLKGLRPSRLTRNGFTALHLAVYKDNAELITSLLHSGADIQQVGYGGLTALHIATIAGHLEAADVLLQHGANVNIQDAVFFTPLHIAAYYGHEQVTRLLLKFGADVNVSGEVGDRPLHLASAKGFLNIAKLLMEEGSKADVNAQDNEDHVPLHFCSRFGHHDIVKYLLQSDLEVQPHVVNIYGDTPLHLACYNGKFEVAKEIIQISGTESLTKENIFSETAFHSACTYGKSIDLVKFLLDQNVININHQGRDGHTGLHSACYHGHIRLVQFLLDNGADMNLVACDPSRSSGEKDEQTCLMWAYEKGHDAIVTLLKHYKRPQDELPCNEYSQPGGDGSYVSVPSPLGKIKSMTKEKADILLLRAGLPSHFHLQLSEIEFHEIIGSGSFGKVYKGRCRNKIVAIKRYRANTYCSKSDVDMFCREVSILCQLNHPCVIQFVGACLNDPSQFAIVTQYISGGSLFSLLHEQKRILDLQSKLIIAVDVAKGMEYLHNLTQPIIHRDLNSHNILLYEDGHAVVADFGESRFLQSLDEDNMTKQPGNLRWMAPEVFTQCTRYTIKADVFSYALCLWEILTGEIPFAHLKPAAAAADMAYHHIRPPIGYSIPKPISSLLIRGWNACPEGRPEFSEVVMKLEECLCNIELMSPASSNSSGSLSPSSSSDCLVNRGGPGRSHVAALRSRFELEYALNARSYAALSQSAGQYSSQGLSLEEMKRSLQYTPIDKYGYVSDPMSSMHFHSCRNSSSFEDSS
Particulars: at 10 µM.

Test [3] concerns the target Mitogen-activated protein kinase kinase kinase kinase 5 (Homo sapiens) (UniProt Q9Y4K4). Description: Selectivity interaction (KinomeScan (DiscoverX)) EUB0000695a MAP4K5. The note with it: at 100 nM.
Test [4] addresses MAP kinase-activated protein kinase 2 (Homo sapiens, UniProt P49137). The experiment in a line: Selectivity interaction (KinomeScan (DiscoverX)) EUB0000666a MAPKAPK2. The note with it: at 10 µM.
In test [5] the target is eIF-2-alpha kinase GCN2 (Homo sapiens) (UniProt Q9P2K8). The experiment in a line: Selectivity interaction (ActivX KiNativ screen (kinase selectivity in THP-1 cell lysates)) EUB0000639a EIF2AK4. Particulars: lysate, at 0.01 µM. It counts as subcellular.
Test [6] deals with 5-hydroxytryptamine receptor 3A (Homo sapiens, UniProt P46098). Description: Selectivity interaction (Serotonin 5HT3 receptor assay, human recombinant ) EUB0000877a HTR3A.
5-hydroxytryptamine receptor 3A, sequence (P46098 whole entry): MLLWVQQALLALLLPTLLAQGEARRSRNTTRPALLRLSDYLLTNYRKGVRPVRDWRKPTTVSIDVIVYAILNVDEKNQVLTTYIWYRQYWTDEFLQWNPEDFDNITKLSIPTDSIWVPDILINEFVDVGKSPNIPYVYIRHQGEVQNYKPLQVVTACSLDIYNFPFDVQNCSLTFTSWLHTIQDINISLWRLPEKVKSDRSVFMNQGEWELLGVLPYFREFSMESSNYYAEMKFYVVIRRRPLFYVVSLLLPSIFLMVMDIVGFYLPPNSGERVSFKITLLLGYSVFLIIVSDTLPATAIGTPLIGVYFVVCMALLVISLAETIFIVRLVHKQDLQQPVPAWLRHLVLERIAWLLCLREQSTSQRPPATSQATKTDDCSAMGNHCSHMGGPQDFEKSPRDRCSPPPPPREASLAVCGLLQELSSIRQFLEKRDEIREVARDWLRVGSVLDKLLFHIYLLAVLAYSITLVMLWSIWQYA
Test [7] concerns the target T2, Serine/threonine-protein kinase 17A (Homo sapiens) (UniProt Q9UEE5).
T2 sequence (whole entry): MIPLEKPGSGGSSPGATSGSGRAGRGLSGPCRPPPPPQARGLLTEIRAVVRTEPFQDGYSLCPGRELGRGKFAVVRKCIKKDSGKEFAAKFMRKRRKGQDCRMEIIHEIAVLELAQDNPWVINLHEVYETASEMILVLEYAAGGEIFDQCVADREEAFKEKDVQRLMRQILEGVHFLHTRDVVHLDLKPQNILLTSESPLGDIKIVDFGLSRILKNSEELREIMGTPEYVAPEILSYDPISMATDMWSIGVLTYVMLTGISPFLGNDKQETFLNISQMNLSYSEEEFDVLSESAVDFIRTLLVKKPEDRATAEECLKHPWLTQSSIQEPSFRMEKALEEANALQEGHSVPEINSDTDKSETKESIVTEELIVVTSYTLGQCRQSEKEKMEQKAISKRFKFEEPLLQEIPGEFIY
The experiment in a line: Selectivity interaction (Kinase panel (DSF assay)) EUB0001559a STK17A.

Test [8] has as its target Phosphatidylinositol 4-kinase beta (Homo sapiens, UniProt Q9UBF8). Description: Selectivity interaction (Kinase panel (KiNativ target engagement assay in Jurkat cells)) EUB0001635a PI4KB. Type of test: cell-based. The note with it: Selectivity number of off-targets 0.0, Selectivity number of targets 233.0, Source Knowledge https://www.sciencedirect.com/science/article/pii/S2451945619300674?via%3Dihub, at 1 µM.

For test [9], the target named is Serine/threonine-protein kinase 26 (Homo sapiens, UniProt Q9P289). Description: Selectivity interaction (Kinase panel (KiNativ target engagement assay in Jurkat cells)) EUB0001635a STK26. Type of test: cell-based. Particulars: Selectivity number of off-targets 0.0, Selectivity number of targets 233.0, Source Knowledge https://www.sciencedirect.com/science/article/pii/S2451945619300674?via%3Dihub, at 1 µM.
Serine/threonine-protein kinase 26, sequence (Q9P289 2-416 limits assumed): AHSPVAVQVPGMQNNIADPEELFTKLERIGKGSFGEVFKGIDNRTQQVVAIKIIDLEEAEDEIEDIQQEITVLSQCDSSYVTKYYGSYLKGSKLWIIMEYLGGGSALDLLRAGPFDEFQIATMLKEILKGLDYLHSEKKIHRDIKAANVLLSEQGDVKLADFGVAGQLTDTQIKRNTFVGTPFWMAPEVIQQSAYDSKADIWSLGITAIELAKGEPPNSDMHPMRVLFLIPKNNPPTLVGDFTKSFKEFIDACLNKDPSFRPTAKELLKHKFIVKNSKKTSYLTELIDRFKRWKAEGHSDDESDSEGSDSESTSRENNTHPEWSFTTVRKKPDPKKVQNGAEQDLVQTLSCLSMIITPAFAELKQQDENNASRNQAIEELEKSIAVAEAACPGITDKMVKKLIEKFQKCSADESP

The target in test [10] is T3, Dual specificity mitogen-activated protein kinase kinase 6 (Homo sapiens) (UniProt P52564).
T3 sequence (whole entry): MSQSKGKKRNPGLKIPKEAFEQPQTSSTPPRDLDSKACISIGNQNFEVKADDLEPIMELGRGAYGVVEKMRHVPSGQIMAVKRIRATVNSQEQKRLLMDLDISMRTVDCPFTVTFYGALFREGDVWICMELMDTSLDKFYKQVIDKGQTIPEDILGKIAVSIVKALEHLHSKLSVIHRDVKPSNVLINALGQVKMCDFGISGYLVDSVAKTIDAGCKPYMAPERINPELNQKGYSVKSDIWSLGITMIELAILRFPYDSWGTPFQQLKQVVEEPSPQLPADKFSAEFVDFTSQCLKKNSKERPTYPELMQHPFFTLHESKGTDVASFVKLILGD
The experiment in a line: Selectivity interaction (Kinase panel (KiNativ target engagement assay in Jurkat cells)) EUB0001635a MAP2K6. The note with it: Selectivity number of off-targets 0.0, Selectivity number of targets 233.0, Source Knowledge https://www.sciencedirect.com/science/article/pii/S2451945619300674?via%3Dihub, at 1 µM. It counts as cell-based.

In test [11] the target is Fibroblast growth factor receptor 3 (Homo sapiens, UniProt P22607). The experiment in a line: (§1) Selectivity interaction (KinomeScan (DiscoverX)) EUB0000618a FGFR3. Particulars: at 10 µM.
Fibroblast growth factor receptor 3, sequence (P22607 23-806 limits assumed): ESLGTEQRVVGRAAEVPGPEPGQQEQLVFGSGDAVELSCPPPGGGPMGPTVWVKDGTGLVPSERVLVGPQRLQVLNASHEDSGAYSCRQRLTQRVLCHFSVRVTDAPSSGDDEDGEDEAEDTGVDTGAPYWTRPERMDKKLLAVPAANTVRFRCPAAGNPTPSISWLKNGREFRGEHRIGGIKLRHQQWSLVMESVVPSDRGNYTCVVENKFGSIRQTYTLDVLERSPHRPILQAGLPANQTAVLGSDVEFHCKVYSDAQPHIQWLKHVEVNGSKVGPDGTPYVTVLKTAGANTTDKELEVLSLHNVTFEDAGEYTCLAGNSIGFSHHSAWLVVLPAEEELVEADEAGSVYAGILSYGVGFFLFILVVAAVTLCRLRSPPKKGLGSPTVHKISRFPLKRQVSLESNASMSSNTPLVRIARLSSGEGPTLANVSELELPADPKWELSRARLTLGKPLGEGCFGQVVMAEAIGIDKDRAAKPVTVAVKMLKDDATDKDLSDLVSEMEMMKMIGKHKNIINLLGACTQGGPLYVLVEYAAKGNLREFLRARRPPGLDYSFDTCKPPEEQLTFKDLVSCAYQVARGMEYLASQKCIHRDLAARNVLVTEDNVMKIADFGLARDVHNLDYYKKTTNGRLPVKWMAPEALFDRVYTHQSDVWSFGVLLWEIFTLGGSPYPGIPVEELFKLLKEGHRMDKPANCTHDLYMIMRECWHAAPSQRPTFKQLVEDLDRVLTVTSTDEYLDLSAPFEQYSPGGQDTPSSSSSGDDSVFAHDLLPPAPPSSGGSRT
In test [12] the test system is Fibroblast growth factor receptor 3 (Homo sapiens), P22607 [G697C]. The test is described as §1. Particulars: at 10 µM.
Fibroblast growth factor receptor 3 (Homo sapiens), P22607 [G697C], sequence (P22607 whole entry G697C): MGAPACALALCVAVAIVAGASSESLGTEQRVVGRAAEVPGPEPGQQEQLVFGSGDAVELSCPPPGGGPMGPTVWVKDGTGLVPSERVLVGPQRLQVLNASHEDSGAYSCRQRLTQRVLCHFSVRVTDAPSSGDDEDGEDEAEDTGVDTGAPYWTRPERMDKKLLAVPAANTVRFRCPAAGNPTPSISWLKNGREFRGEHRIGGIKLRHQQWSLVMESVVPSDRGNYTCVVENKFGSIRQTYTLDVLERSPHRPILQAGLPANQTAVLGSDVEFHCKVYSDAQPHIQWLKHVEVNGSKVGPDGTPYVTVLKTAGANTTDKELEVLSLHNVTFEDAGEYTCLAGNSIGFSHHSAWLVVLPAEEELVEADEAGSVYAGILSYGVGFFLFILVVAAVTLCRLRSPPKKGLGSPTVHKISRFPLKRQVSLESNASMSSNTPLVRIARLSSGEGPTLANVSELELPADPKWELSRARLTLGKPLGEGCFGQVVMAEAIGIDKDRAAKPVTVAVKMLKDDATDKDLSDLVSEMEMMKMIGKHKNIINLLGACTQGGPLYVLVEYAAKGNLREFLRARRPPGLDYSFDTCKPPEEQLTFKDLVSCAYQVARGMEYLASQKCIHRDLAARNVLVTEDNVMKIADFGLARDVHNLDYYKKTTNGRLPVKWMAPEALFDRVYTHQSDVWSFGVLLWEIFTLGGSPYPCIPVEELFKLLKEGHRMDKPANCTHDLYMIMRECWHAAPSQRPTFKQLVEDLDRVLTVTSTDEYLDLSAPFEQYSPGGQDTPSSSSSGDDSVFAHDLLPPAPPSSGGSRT

The structures appear in SMILES notation.

Mitogen-activated protein kinase kinase kinase kinase 5 (Homo sapiens), sequence (Q9Y4K4 whole entry, looked up): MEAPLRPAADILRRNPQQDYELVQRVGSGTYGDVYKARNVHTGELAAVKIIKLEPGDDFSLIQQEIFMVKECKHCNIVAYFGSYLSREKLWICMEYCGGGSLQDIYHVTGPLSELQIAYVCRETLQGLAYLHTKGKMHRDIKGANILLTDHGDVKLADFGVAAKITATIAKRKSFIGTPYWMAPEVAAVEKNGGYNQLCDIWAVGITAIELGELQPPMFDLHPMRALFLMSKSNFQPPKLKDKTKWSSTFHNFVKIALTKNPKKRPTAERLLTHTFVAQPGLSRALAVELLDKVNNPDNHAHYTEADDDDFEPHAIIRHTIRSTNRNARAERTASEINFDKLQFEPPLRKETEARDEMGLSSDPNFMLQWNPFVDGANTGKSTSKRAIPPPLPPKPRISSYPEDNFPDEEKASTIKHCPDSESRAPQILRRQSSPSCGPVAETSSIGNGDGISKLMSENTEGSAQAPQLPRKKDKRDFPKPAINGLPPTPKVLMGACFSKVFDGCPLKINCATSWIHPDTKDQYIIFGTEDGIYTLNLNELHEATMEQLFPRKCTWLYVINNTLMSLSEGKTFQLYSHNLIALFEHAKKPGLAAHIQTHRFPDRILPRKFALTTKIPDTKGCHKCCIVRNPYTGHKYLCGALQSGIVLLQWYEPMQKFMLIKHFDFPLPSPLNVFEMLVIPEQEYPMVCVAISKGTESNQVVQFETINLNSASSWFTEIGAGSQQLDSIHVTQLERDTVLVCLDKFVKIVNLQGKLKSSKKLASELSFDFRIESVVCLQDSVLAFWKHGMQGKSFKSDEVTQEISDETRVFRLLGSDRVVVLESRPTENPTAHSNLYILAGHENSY
MAP kinase-activated protein kinase 2, sequence (P49137 whole entry, looked up): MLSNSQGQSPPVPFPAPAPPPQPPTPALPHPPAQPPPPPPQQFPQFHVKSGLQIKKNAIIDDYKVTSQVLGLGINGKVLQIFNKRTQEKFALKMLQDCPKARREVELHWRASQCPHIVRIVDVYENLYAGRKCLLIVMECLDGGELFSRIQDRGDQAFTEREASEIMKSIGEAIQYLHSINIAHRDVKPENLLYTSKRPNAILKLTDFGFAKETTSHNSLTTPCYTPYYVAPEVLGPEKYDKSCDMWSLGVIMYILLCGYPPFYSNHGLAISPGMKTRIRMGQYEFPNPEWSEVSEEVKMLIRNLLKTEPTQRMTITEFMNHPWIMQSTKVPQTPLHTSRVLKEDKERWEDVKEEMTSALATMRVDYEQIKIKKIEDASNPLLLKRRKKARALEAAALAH
Phosphatidylinositol 4-kinase beta, sequence (Q9UBF8 2-816 limits assumed): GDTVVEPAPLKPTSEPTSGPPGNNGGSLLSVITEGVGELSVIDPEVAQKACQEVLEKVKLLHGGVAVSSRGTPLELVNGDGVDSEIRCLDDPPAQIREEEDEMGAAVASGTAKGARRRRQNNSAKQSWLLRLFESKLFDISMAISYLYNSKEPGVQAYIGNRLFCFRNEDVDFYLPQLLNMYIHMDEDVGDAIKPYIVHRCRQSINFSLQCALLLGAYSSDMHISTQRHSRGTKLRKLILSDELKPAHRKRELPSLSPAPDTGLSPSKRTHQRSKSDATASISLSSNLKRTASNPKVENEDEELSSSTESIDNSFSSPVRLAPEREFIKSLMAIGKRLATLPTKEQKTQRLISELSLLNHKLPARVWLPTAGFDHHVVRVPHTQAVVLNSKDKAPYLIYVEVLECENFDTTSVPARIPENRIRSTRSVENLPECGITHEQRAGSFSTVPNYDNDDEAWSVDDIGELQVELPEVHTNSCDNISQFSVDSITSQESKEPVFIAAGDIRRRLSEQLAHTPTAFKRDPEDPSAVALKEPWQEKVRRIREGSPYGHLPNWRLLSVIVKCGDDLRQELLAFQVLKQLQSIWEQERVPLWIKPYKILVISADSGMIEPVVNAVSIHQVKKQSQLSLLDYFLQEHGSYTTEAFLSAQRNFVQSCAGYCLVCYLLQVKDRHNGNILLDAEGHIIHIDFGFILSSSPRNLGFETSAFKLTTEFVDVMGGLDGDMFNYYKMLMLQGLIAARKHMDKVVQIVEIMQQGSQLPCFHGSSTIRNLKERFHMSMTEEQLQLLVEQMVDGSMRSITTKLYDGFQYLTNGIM

As for `CN(C)C/C=C/C(=O)Nc1ccc(C(=O)N2CCCC(Nc3ncc(Cl)c(-c4c[nH]c5ccccc45)n3)C2)cc1` (configuration not stated), the % of control in test [1] amounted to 92%.

Regarding `CCN(CC)CCCCNc1ncc2cc(-c3cc(OC)cc(OC)c3)c(NC(=O)NC(C)(C)C)nc2n1`, the % of control in test [2] was 100%.

For `Cc1cc(F)c(C(=O)Nc2cccc(-c3nncn3C(C)C)n2)cc1-n1cnc(C2CC2)c1`, the % of control in test [3] is 100%.

Turning to `O=C(NOC[C@H](O)CO)c1ccc(F)c(F)c1Nc1ccc(I)cc1F`, the % of control in test [4] came out at 84%.

Consider `CC[C@@H]1[C@H](F)C(=O)N[C@@H]1COc1nccc2cc(C(N)=O)c(OC)cc12` [ZIMLOVISERTIB], for which the % of inhibition in [5] came out at 2%.

Take `CCC(=O)N1CC[C@H](Nc2ncnc3c2CN(c2cnc(OC)c(C(F)(F)F)c2)CC3)C1` [LENIOLISIB]: the IC50 in [6] is > 30 µM.

As for `CN(C(=O)c1cnn2cccnc12)c1cc2c(cc1N1CCOCC1)C(=O)N(C[C@@H](F)C(C)(C)O)C2`, in test [7], the dTM is -0.1 K.

For the compound `C=CC(=O)Nc1ccc(C(=O)Nc2[nH]nc3c2CN(C(=O)N[C@H](CN(C)C)c2ccccc2)C3(C)C)cc1`, the % of engagement in test [8] was -11.3%; in test [9], 26%; in test [10] it was 2.8%.

As to `O[C@H]1CC[C@H](Nc2ncc3nc(Nc4c(F)cc(F)cc4F)n([C@H]4CCOC4)c3n2)CC1`, the results for the % of control in test [11] and in [12] were 88% and 82%, respectively.

In general, IC50 refers to the point on the concentration scale where inhibition reaches its midpoint.
